Data taken from patent publication US20180221435A1, “ITCH TREATMENT USING A COMBINATION OF NEUROKININ-1, GASTRIN RELEASING PEPTIDE, AND GLUTAMATE RECEPTOR ANTAGONISTS” (The Regents of the University of California, priority 2013, published 2018).
Read-outs that look alike come from different tables or passages of the source.

Experiments:
[1] = at the dose and in the condition of the same Table I line; cited from earlier work
DRG cells = assay: Calcium imaging of DRG cells; conditions: 898 DRG cells; chloroquine 300 μM, histamine 100 μM, 30 sec; ratio increase more than 10%
[2] = system: superficial dorsal horn neurons; assay: In vivo single-unit recording, noxious pinch-evoked responses, spinal superfusion of antagonists; parameters: species or system mice; conditions: pinch at end of 1 min superfusion
Experimental: Akiyama T et al., The Journal of neuroscience: the official journal of the Society for Neuroscience 29(20):6691-6699 (2009)]. Anesthesia was induced by sodium pentobarbital (60 mg/kg ip) and maintained by supplemental injections (10-20 mg/kg/hr). […] A tungsten microelectrode recorded single-unit activity in the lumbar spinal cord. A chemical search strategy [Akiyama T et al., Journal of neurophysiology 102(4):2176-2183 2009; […] Units were classified as wide dynamic range (WDR)-type if they responded in a graded manner to innocuous mechanical stimulation (brushing, cotton wisp) and noxious pinch, or nociceptive-specific (NS) if they responded to noxious pinch (and to the 55 mN von Frey stimulus) but not to the cotton wisp or brush stimuli. […] Akiyama T et al., The Journal of neuroscience: the official journal of the Society for Neuroscience 29(20):6691-6699 (2009)]. […] At the end of the antagonist superfusion, the noxious pinch stimulus was delivered again at the same site on the receptive field. Thirty minutes later, the noxious pinch stimulus was delivered in the same manner. Action potentials were recorded to a computer and counted using Chart software (AD Instruments, Colorado Springs Colo.) and Spike2 software (CED Instruments). […]

[3] = system: superficial dorsal horn neurons; assay: Baseline activity of superficial dorsal horn neurons before and after antagonist application; assay type: in vivo, mice; conditions: ± SEM
Experimental: (§1) The single-unit recording from the lumbar spinal cord was conducted as previously detailed [Akiyama T et al., Journal of neurophysiology 102(4):2176-2183 (2009); Akiyama T et al., The Journal of neuroscience: the official journal of the Society for Neuroscience 29(20):6691-6699 (2009)]. Anesthesia was induced by sodium pentobarbital (60 mg/kg ip) and maintained by supplemental injections (10-20 mg/kg/hr). A gravity-driven perfusion system allowed artificial cerebrospinal fluid (Krebs: 117 mM NaCl, 3.6 mM KCl, 2.5 mM CaCl2, 1.2 mM MgCl2, 1.2 mM NaH2PO4, 25 mM NaHCO3 and 11 mM glucose which was equilibrated with 95% 02 and 5% CO2 at 37° C.) to be superfused continually over the exposed lumbosacral spinal cord [Akiyama T et al., PloS one 6(7):e22665 (2011)]. A tungsten microelectrode recorded single-unit activity in the lumbar spinal cord. A chemical search strategy [Akiyama T et al., Journal of neurophysiology 102(4):2176-2183 2009; Akiyama T et al., The Journal of neuroscience: the official journal of the Society for Neuroscience 29(20):6691-6699 (2009)] was used to identify and isolate chloroquine-responsive units. Our search strategy was intended to maximize the chance of isolating a chloroquine-responsive neuron; it was assumed that such neurons either gave rise to ascending projections, or served as interneurons in segmental scratch-reflex circuitry, and no attempt was presently made to distinguish between these possibilities.
There was no significant effect of any of the antagonists on the baseline activity of superficial dorsal horn neurons that were subsequently show to respond to pruritogens. […] Values prior to, and after administration of each antagonist individually or in combination, are as follows. NK-1 antagonist L-733060: pre-application 0.88 Hz±0.23 (SEM), post-antagonist 0.72 Hz±0.19 (n=10). GRPR antagonist RC-3095: pre-application 0.54 Hz±0.54, post-antagonist: 0.53 Hz±0.53 (n=4). CNQX: pre-application 0.53 Hz±0.14, post-antagonist 0.64 Hz±0.21 (n=22). CNQX+L-733060: pre-application 0.52 Hz±0.17, post-antagonists 0.43 Hz±0.11 (n=26). CNQX+L-733060+RC-3095: pre-application 0.14 Hz±0.06, post-antagonists 0.17 Hz±0.06 (n=9).

[4] = system: histamine-evoked scratching; conditions: intrathecal L-733060 22.7 nmol or RC-3095 0.3 nmol, data adapted from Akiyama et al. 2013, cited from earlier work
[5] = system: superficial dorsal horn neurons; assay: In vivo single-unit recording, id chloroquine-evoked firing, spinal superfusion of antagonists; parameters: species or system mice
Experimental: as §1
Briefly, a small (˜0.25 μl) intradermal (id) microinjection of chloroquine (100 μg/μl) was made in the ventral hindpaw and a spontaneously active unit in the superficial lumbar dorsal horn (depth<300 um) was isolated. After the spontaneous activity had waned, chloroquine (1 μl, 100 μg/μl) was injected again at the same site through the same needle. […] Responses were usually recorded for at least 30 minutes, although in many cases unit firing declined over a shorter period.
Action potentials were recorded to a computer and counted using Chart software (AD Instruments, Colorado Springs Colo.) and Spike2 software (CED Instruments). Ongoing responses elicited by chloroquine, histamine, or AITC were averaged at 20-second intervals before, during and after the antagonist application, and compared by one way repeated-measures analysis of variance (ANOVA) followed by post-hoc Bonferroni test, with p<0.05 set as significant. The mean firing rate was calculated over a 20-second period 40 seconds after the antagonist application, and compared by one way ANOVA followed by post-hoc Bonferroni test, with p<0.05 set as significant. The criterion for decrease in ongoing firing was >70% decrease below the ongoing activity elicited by pruritogen over a 20-second period 40 seconds after the antagonist application. Mean peak responses elicited by noxious pinch were compared by one way repeated-measures ANOVA followed by post-hoc Bonferroni test, with p<0.05 set as significant. At the end of each experiment, an electrolytic lesion was made at the spinal cord recording site. The spinal cord was postfixed in 10% buffered formalin, cut in 50 μm frozen sections, and examined under the light microscope to identify lesions.

[6] = system: superficial dorsal horn neurons; assay: In vivo single-unit recording, id histamine-evoked firing, spinal superfusion of antagonists; parameters: species or system mice; conditions: for Percentages of dorsal horn units that exhibited a decrease of 70% or more in firing rate following spinal superfusion of antagonists: id histamine-evoked firing, superfusion 1 min, RC-3095 20 μM, L-733060 200 μM, CNQX 100 μM
Experimental: (§2) Akiyama T et al., The Journal of neuroscience: the official journal of the Society for Neuroscience 29(20):6691-6699 (2009)]. Anesthesia was induced by sodium pentobarbital (60 mg/kg ip) and maintained by supplemental injections (10-20 mg/kg/hr). […] A tungsten microelectrode recorded single-unit activity in the lumbar spinal cord. A chemical search strategy [Akiyama T et al., Journal of neurophysiology 102(4):2176-2183 2009; […] Following mechanical stimulation, histamine (50 μg) was injected id within the same receptive field at a different location via a separate injection cannula. Following the id histamine injection, we tested the effects of antagonists for the receptors of NK1, GRP, or AMPA/kainate in the same manner as described above for chloroquine. […] Following the AITC application, we tested the effects of the NK-1 receptor antagonist, the AMPA/kainate receptor antagonist, or a combination of both antagonists in the same manner as described above for chloroquine. Action potentials were recorded to a computer and counted using Chart software (AD Instruments, Colorado Springs Colo.) and Spike2 software (CED Instruments). […] Mean peak responses elicited by noxious pinch were compared by one way repeated-measures ANOVA followed by post-hoc Bonferroni test, with p<0.05 set as significant. At the end of each experiment, an electrolytic lesion was made at the spinal cord recording site.

[7] = system: superficial dorsal horn neurons; assay: In vivo single-unit recording, topical AITC-evoked firing, spinal superfusion of antagonists; parameters: species or system mice
Experimental: as §2

C[C@@H](O[C@H]1OCCN(Cc2n[nH]c(=O)[nH]2)[C@H]1c1ccc(F)cc1)c1cc(C(F)(F)F)cc(C(F)(F)F)c1 [Aprepitant]
Side Effects [1]: generally mild.

CC(=O)N1N=C(c2ccc(N)cc2)c2cc3c(cc2C[C@H]1C)OCO3 [Talampanel]
Side Effects [1]: Mild (fatigue,

NCCc1c[nH]cn1 [histamine]
percentage of DRG cells imaged that responded (DRG cells): 12.9%

CC(=O)N1CCN([C@H]2CCN(C(=O)N(C)[C@H](C)c3cc(C(F)(F)F)cc(C(F)(F)F)c3)[C@@H](c3ccc(F)cc3C)C2)CC1 [GW679769]
Side Effects [1]: well tolerated,

COc1ccc(OC(F)(F)F)cc1CN[C@H]1CCCN[C@H]1c1ccccc1 [AV608]
Side Effects [1]: well tolerated.

COc1ccc(-n2nnnc2C(F)(F)F)cc1CN[C@H]1CCCN[C@H]1c1ccccc1 [GR205171]
Side Effects [1]: well-tolerated

O=c1[nH]c2cc(C(F)(F)F)c(N3CCOCC3)cc2n(CP(=O)(O)O)c1=O [ZK 200775]
Side Effects [1]: Sedation,

FC(F)(F)c1cc(CO[C@H]2CCCN[C@H]2c2ccccc2)cc(C(F)(F)F)c1 [L733060]
noxious pinch-evoked response, effect of spinal superfusion [2]: not reduced | baseline neuronal firing rate, post-antagonist ([3]; averaged over 1 min following antagonist application): 0.72 Hz | baseline neuronal firing rate, pre-application ([3]; averaged over 1 min prior to antagonist application): 0.88 Hz | histamine-evoked scratching (scratch bouts/30 minutes) ([4]; listed as NK-1 antagonist): neither the NK-1 nor the GRPR antagonist attenuated | histamine-evoked scratching (scratch bouts/30 minutes) ([4]; listed as NK-1 receptor antagonist): not affected | chloroquine-evoked firing compared to vehicle superfusion ([5]; 40-60 s of superfusion, normalized firing, vs vehicle): did not produce a significant reduction in firing compared to vehicle superfusion | chloroquine-evoked firing in NS cells ([5]; NS units, vs vehicle): but not NS cells | chloroquine-evoked firing in WDR cells ([5]; WDR units, vs vehicle): significantly reduced | chloroquine-evoked firing, effect of spinal superfusion ([5]; relative to chloroquine-evoked response prior to spinal superfusion): significantly attenuated after the cessation of superfusion | histamine-evoked response of NS units ([6]; NS units, vs vehicle): failed to reduce | histamine-evoked response of WDR units ([6]; WDR units, vs vehicle): failed to reduce | histamine-evoked firing, effect of spinal superfusion ([6]; all units): not significantly different from vehicle | Percentages of dorsal horn units that exhibited a decrease of 70% or more in firing rate following spinal superfusion of antagonists [6]: 33% (6/18) | Percentages of dorsal horn units that exhibited a decrease of 70% or more in firing rate following spinal superfusion of antagonists ([6]; listed as NK-1 antagonist): 33% | AITC-evoked firing, effect of spinal superfusion ([7]; topical AITC 75%): numerically reduced | Percentages of dorsal horn units that exhibited a decrease of 70% or more in firing rate following spinal superfusion of antagonists ([7]; topical AITC-evoked firing, superfusion 1 min, L-733060 200 μM, CNQX 100 μM): 22% (2/9)

CCN(CC)CCCC(C)Nc1ccnc2cc(Cl)ccc12 (stereo not drawn) [chloroquine]
percentage of DRG cells imaged that responded (DRG cells): 8.4%
